Test results from PubChem BioAssay (NCI).
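Following 48 hours of exposure in 96-well plates, responses at five concentrations were used to interpolate endpoints linearly. The concentration for full growth arrest is given as TGI.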

Columns and labels:
Experiment in all cases: growth of human tumour cells (NCI), 48 h
SNB-78 CNS = tested on: SNB-78 CNS
DMS 114 small cell lung = tested on: DMS 114 small cell lung
SF-268 CNS = tested on: SF-268 CNS
NCI-H460 lung = tested on: NCI-H460 lung
RPMI-8226 leukemia = tested on: RPMI-8226 leukemia
KM20L2 colon = tested on: KM20L2 colon
LXFL 529 NSCLC = tested on: LXFL 529 NSCLC
SW-620 colon = tested on: SW-620 colon
DMS 273 small cell lung = tested on: DMS 273 small cell lung
HOP-18 NSCLC = tested on: HOP-18 NSCLC
DLD-1 colon = tested on: DLD-1 colon
XF 498 CNS = tested on: XF 498 CNS
M19-MEL melanoma = tested on: M19-MEL melanoma

| Structure (SMILES) | TGI (SNB-78 CNS) [µM] | TGI (DMS 114 small cell lung) [µM] | TGI (SF-268 CNS) [µM] | TGI (NCI-H460 lung) [µM] | TGI (RPMI-8226 leukemia) [µM] | TGI (KM20L2 colon) [µM] | TGI (LXFL 529 NSCLC) [µM] | TGI (SW-620 colon) [µM] | TGI (DMS 273 small cell lung) [µM] | TGI (HOP-18 NSCLC) [µM] | TGI (DLD-1 colon) [µM] | TGI (XF 498 CNS) [µM] | TGI (M19-MEL melanoma) [µM] |
| --- | --- | --- | --- | --- | --- | --- | --- | --- | --- | --- | --- | --- | --- |
| O=C(c1cccs1)N(C(=S)N1CCN(c2ccccn2)CC1)C1CCCCC1 | > 100 | > 100 | > 100 | > 100 | > 100 | > 100 | > 100 | > 100 | > 100 | > 100 | > 100 | – | – |
| CC1=NN(C(=O)c2ccccc2O)C(=O)/C1=C/c1ccccc1O | – | 8.86 | > 75.4 | > 100 | > 100 | > 100 | > 100 | > 100 | – | – | > 100 | > 100 | – |
| C#C[C@]1(O)CCC2C3CCc4cc(Oc5nc(F)nc(-c6c7cc8ccccc8cc7c7n6CCS7)n5)ccc4C3CCC21C (some centres not stated) | > 100 | 50.8 | > 100 | > 100 | > 100 | 99.6 | > 100 | > 100 | > 100 | > 100 | > 100 | > 100 | > 100 |
| COC(=O)C1[C@@H](C(=O)OC)C12C=Cc1ccccc1C=C2 (some centres not stated) | > 100 | > 100 | > 100 | > 100 | > 100 | > 100 | > 100 | > 100 | > 100 | – | > 100 | > 100 | > 100 |
| O=C(c1ccco1)N(C(=S)N1CCN(c2ccccn2)CC1)C1CCCCC1 | > 100 | > 100 | > 100 | > 100 | > 100 | > 100 | > 100 | > 100 | > 100 | > 100 | > 100 | – | > 100 |
